Assay: gradient 5% acetonitrile 3 min, to 50% in 2 min, to 85% in 15 min, held 3 min, 100 µL/min
Conditions: column: Zorbax Extend-C18 2.1 x 50 mm; eluents: water / acetonitrile, 0.1% formic acid
Outline: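 Each retention time is based on an adduct peak selected computationally and verified by manual inspection. Measurements used HPLC–quadrupole time-of-flight mass spectrometry in positive and negative ionization mode on mixtures of ~100 pure standards. Chromatography ran on a Zorbax Extend-C18 column (2.1 × 50 mm, 1.8 μm) at 100 μL/min with water and acetonitrile, each containing 0.1% formic acid, and dead and dwell volumes of 40 μL and 900 μL.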

| SMILES | RP-LC retention time [s] |
| --- | --- |
| Cc1ccc(C)n1-c1c(C(=O)N2CCN(c3ccccn3)CC2)sc2ncccc12 | 690 |
| COc1ccc(Cl)cc1NC(=O)c1cc(C)n2nc(-c3ccco3)cc2n1 | 1300 |
| CCn1ccc(C(=O)N2CCCC2c2cccc(C)c2)n1 (centres undefined) | 890 |
| CCCCN(C)C(=O)c1c(C)oc2ccn(Cc3ccc(F)cc3)c(=O)c12 | 868 |
| Cc1c(C(=O)NC2CCCCCC2)sc2ncn(CC(=O)N3CC(C)CC(C)C3)c(=O)c12 (centres undefined) | 1070 |
| CCc1ccc(NC(=O)Cn2nc3c(N(C)C4CCCCC4)nccn3c2=O)cc1 | 823 |
| CCOC(=O)CCC(=O)N1CC(c2nc(C)no2)C1 | 603 |
| Cc1ccc(-c2nc(-c3ccc(-n4cccn4)nc3)no2)cc1 | 1330 |
| CCn1c(C(=O)NCCCOC(C)C)cc2c(-c3cccs3)nn(-c3ccccc3)c21 | 1150 |
| O=C(C1CC(=O)N(c2n[nH]c3cccc(F)c23)C1)N1CCc2ccccc2C1 (centres undefined) | 752 |
| Cc1ccc(CNC(=O)CSc2nccc(N3CCN(c4cc(C)ccc4C)CC3)n2)cc1 | 958 |
| COc1ccc(NC(=O)Cn2nc3n(c2=O)CCCC3)c(OC)c1 | 642 |
| CCn1cc(-c2nc(C(=O)Nc3cc(F)cc(F)c3)cs2)c2cccnc21 | 1180 |
| O=C(c1ccc(S(=O)(=O)c2ccc(Br)cc2)nc1)N1CCN(c2ccccn2)CC1 | 673 |
| CCOc1ccc(C(=O)N2CCCC2c2nc(-c3ccc(F)cc3F)no2)cc1 (centres undefined) | 1010 |
| COc1ccc(-c2nc(-c3ccc(S(=O)(=O)N4CCC(C)CC4)cc3)no2)cc1 | 1340 |
| COc1ccc(-c2nc(NCCCN3CCCCC3C)c3ccccc3n2)cc1 (centres undefined) | 579 |
| Cc1ccc(C(=O)N2CCN(c3nnc4ccc(Cl)cn34)CC2)cc1F | 760 |
| CCN1CCN(Cc2nc(-c3ccc(N(C)Cc4ccccc4)nc3)no2)CC1 | 892 |
| O=C(C1CCN(c2nc3ccc(-c4cccs4)nc3s2)CC1)N1CCOCC1 | 826 |
| Brc1cccc(-c2noc(Cc3nnc(-c4ccccc4)o3)n2)c1 | 1090 |
| CSc1ccc(C2c3[nH]c4ccccc4c3CCN2C(=O)C2CC2)cc1 (centres undefined) | 1120 |
| CC1CN(C(=O)c2cccc3c2-c2ccccc2C3=O)CC(C)O1 (centres undefined) | 754 |

| SMILES | RP-LC retention time [s] |
| --- | --- |
| CN1C(=O)c2cccnc2Sc2cc(C(=O)NCc3cccc(Cl)c3)ccc21 | 818 |
| O=C(O)CCc1conc1-c1cccc(F)c1 | 729 |
| CCOc1ccccc1NC(=O)N1CCC2(C1)C(=O)Nc1ccc(OC)cc12 (centres undefined) | 810 |
| Cc1cnc(C(=O)N2CCCCCC2c2nnc(C)o2)cn1 (centres undefined) | 649 |
| CC1(C(=O)NCc2ccccc2)CN(S(C)(=O)=O)CC(=O)N1Cc1ccc(F)cc1 (centres undefined) | 779 |
| COc1cc(OC)c(NC(=O)Cn2nc3cc(C)nc(-c4ccc(F)cc4)n3c2=O)cc1Cl | 899 |
| CC1=C(C(=O)N2CCOCC2)C(c2ccc(Br)cc2)C2=C(CCCC2=O)N1 (centres undefined) | 670 |
| Cc1ccc(S(=O)(=O)CCc2noc(C(=O)NCCCN3CCC(C)CC3)n2)cc1 | 637 |
| COc1cc(N2C=C(C(=O)N3CCCC3)S(=O)(=O)c3ccccc32)cc(OC)c1OC | 753 |
| Cc1cc(NC(=O)Cn2cnc(-c3cccs3)cc2=O)sn1 | 654 |
| Cc1nc(N2CCN(c3ccccn3)CC2)nc2c1C(=O)CC(c1cccc(Cl)c1)C2 (centres undefined) | 838 |
| O=c1c2cnc3nc(-c4ccccc4)nn3c2ccn1CCc1c[nH]c2ccc(F)cc12 | 941 |
| Cc1ccc(Nc2c(-c3ccc(N4CCOCC4)cc3)nc3cnccn23)cc1 | 848 |
| COc1ccc(C(=O)N2CCN(c3ccc(=O)n(-c4ccc(C(C)C)cc4)n3)CC2)cc1OC | 867 |
| Cc1noc2nc(C)n(CC(=O)NC3CCCC3)c(=O)c12 | 678 |
| Cn1cccc1C(=O)N1CCCCC1c1nncn1Cc1ccccc1 (centres undefined) | 745 |
| CCOc1ccc(C(=O)Nc2cccnc2)nn1 | 552 |
| COCC(=O)Nc1ccc2nc(N3CCN(CC(=O)N4CCCCC4)CC3)cc(C(=O)O)c2c1 | 558 |
| O=C(COc1ccccc1-c1nc(-c2ccccc2Cl)no1)NCc1ccco1 | 1060 |
| CC(NC(=O)CCCn1c2ccccc2c2cnn(C)c(=O)c21)c1ccccc1 (centres undefined) | 873 |
| CCOC(=O)c1c(C)[nH]c(CCC(=O)NC(C)C)c1C | 729 |
| CCc1nn2c(CNS(=O)(=O)Cc3cccc(Cl)c3)c(-c3ccccc3)nc2s1 | 1010 |
| c1nc(NC2CCCCCC2)c2[nH]cnc2n1 | 564 |

| SMILES | RP-LC retention time [s] |
| --- | --- |
| Cc1cccc(N2CC(C(=O)N(C)C)CC2=O)c1 (centres undefined) | 660 |
| C[C@H]1CN(C(=O)Nc2ccc(Cl)cc2)C[C@@H]1c1nc(-c2ccccc2)no1 | 1080 |
| Cc1ccc2ncn(C3CCN(S(=O)(=O)c4cc(F)cc(F)c4)CC3)c(=O)c2c1 | 932 |
| CCn1cc(-c2nc(-c3cccc(Br)c3)no2)c(=O)c2cc(F)c(N3CCOCC3)cc21 | 1050 |
| Cc1ccc(Cl)cc1NC(=O)N1CCc2nc(-c3ccc(F)cc3)ncc2C1 | 1030 |
| O=C(NCc1ccc(F)cc1)c1ccc(-n2nc(N3CCCC3)ccc2=O)cc1 | 810 |
| COc1ccc(-c2nc(Cn3ccnc3)no2)cc1 | 599 |
| COc1ccc(NC(=O)c2nc(N3CCSCC3)c3cnn(C)c3n2)cc1 | 814 |
| COc1ccc(-c2noc(C3CCCN3C(=O)c3cccc(OC)c3)n2)cc1 (centres undefined) | 937 |
| CCCCNC(=O)c1cc2n(n1)CC(C)(C(=O)NCc1ccc(F)cc1)N(C)C2=O (centres undefined) | 725 |
| Cc1ccnc(N2CCCC(C(=O)NCc3ccc(N(C)C)cc3)C2)n1 (centres undefined) | 561 |
| O=C(CSc1nnc2c(=O)n(-c3ccccc3)ccn12)c1ccc(Br)cc1 | 881 |
| Cc1ccccc1-c1nnc(CSc2nnc(NC(=O)c3cccc(F)c3)s2)o1 | 976 |
| COCCCn1c(=O)c2ccccc2n(Cc2nc(-c3cccc(Br)c3)no2)c1=O | 1190 |
| Cc1ccc(NC(=O)N2CCN(CCn3cnc4cccnc43)CC2)cc1Cl | 636 |
| CCc1nn(CC)c(=O)c2cc(S(=O)(=O)NCc3ccc(F)cc3Cl)cn12 | 1020 |
| CCOc1cc(-c2ccc(C)cc2)nc2ccc(NC(=O)c3cccs3)cc12 | 824 |
| COc1c(C(=O)NC(C)(C)C)sc2cccc(F)c12 | 1110 |
| CCc1ccc(Oc2cc(N3CCC(C(=O)NCCc4cccs4)CC3)ncn2)cc1 | 851 |
| C[C@@H](NC(=O)c1cccc(Cl)c1)C(=O)NCc1cscn1 | 652 |
| Cc1csc(-c2cc(S(=O)(=O)N3CCCC3)cn2CC(=O)N2CCCCC2)n1 | 875 |
| CCOC(=O)c1[nH]c(C(=O)O)c(OC(=O)CC)c1C | 912 |
| Cc1nc(C)c(C(=O)Nc2ccc(F)cc2C)s1 | 799 |

| SMILES | RP-LC retention time [s] |
| --- | --- |
| Cc1ccc(C)c(NC(=O)C2CCN(S(=O)(=O)c3cc(C(=O)N(C)C)cs3)CC2)c1 | 790 |
| COc1ccc(S(=O)(=O)N2CCN(c3cc(C)nc(NC4CCCCC4)n3)CC2)cc1C | 848 |
| CCCn1nc2n(c1=O)CCN(Cc1cn[nH]c1-c1ccc(OCC)c(Cl)c1)C2 | 708 |
| CC(C(=O)NCCc1c[nH]c2ccc(Cl)cc12)n1c2ccccc2c2cnn(C)c(=O)c21 (centres undefined) | 930 |
| CN(C)CCN(Cc1ccco1)C(=O)Cn1nc(Cc2ccncc2)c2ccccc2c1=O | 548 |
| Cc1cccc(C)c1OCC(=O)N(Cc1ccc(Br)o1)C1CCS(=O)(=O)C1 (centres undefined) | 960 |
| Cc1cc(Cl)ccc1NC(=O)N1C[C@@H]2C[C@H]1C[C@@H]2NS(=O)(=O)c1ccccc1 | 883 |
| C#CCOc1ccc2c(c1)c(-c1ccc(C(C)C)cc1)nc(=O)n2C(C)C | 1160 |
| CCC(=O)N1c2ccc(S(=O)(=O)CCC(=O)N3CCCc4ccccc43)cc2CC1C (centres undefined) | 881 |
| O=C(NCCCn1cccc1)c1ccno1 | 644 |
| O=C(CNC(=O)c1ccc(F)cc1)Nc1nc2ccccc2[nH]1 | 608 |
| O=c1n(CC2CC2)nc2n1CCC(NS(=O)(=O)c1ccccc1)CC2 (centres undefined) | 706 |
| CCc1ccccc1NC(=O)N1CCCC1c1cc(C)on1 (centres undefined) | 774 |
| O=C1CC(c2noc(-c3ccccc3Cl)n2)CN1c1ccc(F)cc1 (centres undefined) | 964 |
| CCc1ccc(-c2cc(C(F)(F)F)on2)cc1S(=O)(=O)N1CCC(C)CC1 | 1350 |
| O=C(Nc1ccccc1F)N1CCCC1c1nc(-c2ccc(F)cc2F)no1 (centres undefined) | 937 |
| COCCC1(NC(=O)C2CC2)CCN(S(=O)(=O)c2c(C)noc2C)CC1 | 740 |
| Cc1cccc(C(=O)NCC2CCCN(S(=O)(=O)c3cc(C)c(C)cc3C)C2)c1 (centres undefined) | 1060 |
| C[C@]12C=CC(=O)C=C1[C@@H](F)C[C@H]1[C@@H]3CC[C@](O)(C(=O)CO)[C@@]3(C)C[C@H](O)[C@@]12F | 660 |
| Cc1ccc(C(=O)N2CC3CN(S(=O)(=O)c4cccc(F)c4)CC(C2)O3)s1 | 821 |

Reference: the METLIN SMRT retention time set (Domingo-Almenara et al. 2019)
